Test system: 2,3-DPG, ATP and p50 in blood
Test: Phase 1 SAD/MAD, healthy volunteers: pharmacodynamics
Assay type: in vivo, human
Details: for Median Percentage Change in 2,3-DPG Levels: HV
From the text: This is a first-in-human (FIH), Phase 1 study of Compound 1 that will characterize the safety, PK, and PD of Compound 1 after a single dose and after repeated dosing first in healthy adult volunteers and then in adolescents or adults with sickle cell disease. Initially, a dose range of Compound 1 in single ascending dose (SAD) escalation cohorts will be explored in healthy subjects. Enrollment of healthy subjects into 2-week multiple ascending dose (MAD) escalation cohorts will be initiated once the safety and PK from at least two SAD cohorts is available to inform the doses for the 2-week MAD portion of the study. The MAD cohorts will then run in parallel to the single dose cohorts. A single dose cohort is planned to understand food effects (FE) on the PK of Compound 1. […] Multiple dose studies in SCD subjects will then be initiated upon completion of MAD studies in healthy volunteers. Compound 1 will be administered in 25 mg and 100 mg tablets delivered orally.
In this study, SAD/MAD cohorts are randomized (3 to 1) to receive Compound 1 or placebo (P). Compound 1 was evaluated first in 4 healthy SAD cohorts and 4 healthy MAD (14-day dosing period) cohorts. Based on the safety, and PK/PD profile from HS, Compound 1 is then evaluated in 1 SCD SAD cohort and 2 SCD MAD cohorts. Specifically, based on the safety and pharmacokinetic/pharmacodynamics (PK/PD) profile in healthy volunteer studies, Compound 1 is evaluated in patients (pts) with SCD, first in a single dose (SD or SAD) cohort and then in multiple-dose (MD or MAD) cohorts (14-day and 12-week). Safety assessments include AEs, vital signs, ECGs and laboratory parameters. PK/PD blood sampling was performed on Day 1 (SAD/MAD) and Day 14 (MAD) and up to 72 h after the last dose and at the end-of-study visit. PD parameters included 2,3-DPG, ATP, and p50 in all cohorts with additional PD studies (including oxygen scan) performed only in the SCD cohorts. PD parameters included 2,3-DPG, ATP, p50, RBC deformability with controlled deoxygenation and reoxygenation (Lorrca® oxygen scan) and varying osmolality (Lorrca® osmoscan)). To maintain study blind, pt identifiers were removed when needed.
Four healthy SAD cohorts were evaluated at doses of 200, 400, 700, and 1000 mg, and four healthy MAD cohorts received 200 to 600 mg total daily doses for 14 days at QD or BID dosing (100 mg BID, 200 mg BID, 300 mg BID, and 400 mg QD). In the food effect (FE) cohort, 10 healthy subjects received 200 mg of Compound 1 QD with and without food.
In the SAD cohorts, the subjects' blood 2,3-DPG levels were measured periodically after dosing by a qualified LC-MS/MS method for the quantitation of 2,3-DPG in blood. Decreased 2,3-DPG blood levels were observed 6 hours following a single dose of Compound 1 at all dose levels (earlier timepoints were not collected). Maximum decreases in 2,3-DPG levels generally occurred ˜24 hours after the first dose with the reduction sustained ˜48-72 hr postdose. Table 16 reports the median percentage change in 2,3-DPG blood levels, relative to baseline, measured over time in healthy volunteers after a single dose of Compound 1 (200 mg, 400 mg, 700 mg, or 1000 mg) or placebo. Accordingly, the median reduction in the concentration of 2,3-DPG, relative to baseline, was at least about […] at all dose levels tested 24 hours after administration of the single dose.
In the MAD cohorts, the subjects' blood 2,3-DPG levels were measured periodically after dosing by a qualified LC-MS/MS method for the quantitation of 2,3-DPG in blood. The maximum decrease in 2,3-DPG on Day 14 was 55% from baseline (median). […] Table 18 reports the median percentage change in 2,3-DPG blood levels, relative to baseline, measured over time after the first dose on days 1 and 14 in healthy volunteers who received daily doses of Compound 1 (100 mg BID, 200 mg BID, or 300 mg BID) or placebo for 14 days. […]

[1] = MAD, N = 36, all doses and timepoints
[2] = SAD, N = 24, all doses and timepoints

O=C([C@H](CO)c1ccccc1)N1CC2=C(C1)CN(S(=O)(=O)c1cnc3c(c1)OCCO3)C2 (single isomer, unassigned) [Compound 1]
Median Percentage Change in 2,3-DPG Levels (300 mg BID, Day 1, 16 h after first daily dose): −40.7%
Median Percentage Change in 2,3-DPG Levels (300 mg BID, Day 1, 24 h after first daily dose): −50.8%
Median Percentage Change in 2,3-DPG Levels (300 mg BID, Day 14, 0 h after first daily dose): −59.4%
Median Percentage Change in 2,3-DPG Levels (300 mg BID, Day 14, 6 h after first daily dose): −53.0%
Median Percentage Change in 2,3-DPG Levels (300 mg BID, Day 14, 8 h after first daily dose): −54.2%
Median Percentage Change in 2,3-DPG Levels (300 mg BID, Day 14, 12 h after first daily dose): −55.3%
Median Percentage Change in 2,3-DPG Levels (300 mg BID, Day 14, 16 h after first daily dose): −52.4%
Median Percentage Change in 2,3-DPG Levels (300 mg BID, Day 14, 24 h after first daily dose): −52.1%
Median Percentage Change in 2,3-DPG Levels (300 mg BID, Day 14, 48 h after first daily dose): −44.5%
Median Percentage Change in 2,3-DPG Levels (300 mg BID, Day 14, 72 h after first daily dose): −32.9%
Median Percentage Change in 2,3-DPG Levels (single dose 200 mg, 0 h after dose): 0.0%
Median Percentage Change in 2,3-DPG Levels (single dose 200 mg, 6 h after dose): −18%
Median Percentage Change in 2,3-DPG Levels (single dose 200 mg, 8 h after dose): −17%
Median Percentage Change in 2,3-DPG Levels (single dose 200 mg, 12 h after dose): −25%
Median Percentage Change in 2,3-DPG Levels (single dose 200 mg, 16 h after dose): −33%
Median Percentage Change in 2,3-DPG Levels (single dose 200 mg, 24 h after dose): −31%
Median Percentage Change in 2,3-DPG Levels (single dose 200 mg, 36 h after dose): −33%
Median Percentage Change in 2,3-DPG Levels (single dose 200 mg, 48 h after dose): −29%
Median Percentage Change in 2,3-DPG Levels (single dose 200 mg, 72 h after dose): −18%
Median Percentage Change in 2,3-DPG Levels (single dose 400 mg, 0 h after dose): 0.0%
Median Percentage Change in 2,3-DPG Levels (single dose 400 mg, 6 h after dose): −23%
Median Percentage Change in 2,3-DPG Levels (single dose 400 mg, 8 h after dose): −29%
Median Percentage Change in 2,3-DPG Levels (single dose 400 mg, 12 h after dose): −40%
Median Percentage Change in 2,3-DPG Levels (single dose 400 mg, 16 h after dose): −35%
Median Percentage Change in 2,3-DPG Levels (single dose 400 mg, 24 h after dose): −39%
Median Percentage Change in 2,3-DPG Levels (single dose 400 mg, 36 h after dose): −38%
Median Percentage Change in 2,3-DPG Levels (single dose 400 mg, 48 h after dose): −31%
Median Percentage Change in 2,3-DPG Levels (single dose 400 mg, 72 h after dose): −30%
Median Percentage Change in 2,3-DPG Levels (single dose 700 mg, 0 h after dose): 0.0%
Median Percentage Change in 2,3-DPG Levels (single dose 700 mg, 6 h after dose): −29%
Median Percentage Change in 2,3-DPG Levels (single dose 700 mg, 8 h after dose): −28%
Median Percentage Change in 2,3-DPG Levels (single dose 700 mg, 12 h after dose): −41%
Median Percentage Change in 2,3-DPG Levels (single dose 700 mg, 16 h after dose): −46%
Median Percentage Change in 2,3-DPG Levels (single dose 700 mg, 24 h after dose): −49%
Median Percentage Change in 2,3-DPG Levels (single dose 700 mg, 36 h after dose): −46%
Median Percentage Change in 2,3-DPG Levels (single dose 700 mg, 48 h after dose): −48%
Median Percentage Change in 2,3-DPG Levels (single dose 700 mg, 72 h after dose): −33%
Median Percentage Change in 2,3-DPG Levels (single dose 1000 mg, 0 h after dose): 0.0%
Median Percentage Change in 2,3-DPG Levels (single dose 1000 mg, 6 h after dose): −20%
Median Percentage Change in 2,3-DPG Levels (single dose 1000 mg, 8 h after dose): −31%
Median Percentage Change in 2,3-DPG Levels (single dose 1000 mg, 12 h after dose): −44%
Median Percentage Change in 2,3-DPG Levels (single dose 1000 mg, 16 h after dose): −50%
Median Percentage Change in 2,3-DPG Levels (single dose 1000 mg, 24 h after dose): −48%
Median Percentage Change in 2,3-DPG Levels (single dose 1000 mg, 36 h after dose): −47%
Median Percentage Change in 2,3-DPG Levels (single dose 1000 mg, 48 h after dose): −47%
Median Percentage Change in 2,3-DPG Levels (single dose 1000 mg, 72 h after dose): −21%
mean maximum reduction in the concentration of 2,3-DPG (MAD study): at least 50%
mean maximum reduction in the concentration of 2,3-DPG, range (MAD study): 46.1-63.6%
Mean Maximum Percent Change from Baseline, 2,3-DPG [1]: −56.3%
Mean Maximum Percent Change from Baseline, ATP [1]: 68.5%
mean maximum reduction in the concentration of 2,3-DPG (SAD study): at least 40%
mean maximum reduction in the concentration of 2,3-DPG, range (SAD study): 35.4-56.1%
Mean Maximum Percent Change from Baseline, 2,3-DPG [2]: −46.8%
Mean Maximum Percent Change from Baseline, ATP [2]: 24.4%
